Experimental data published in US20020048271A1, “Methods and composition for restoring conformational stability of a protein of the p53 family” (priority 1998, published 2002).

Test system: mutant mouse p53
Assay: not given
Conditions: Brown et al., 1997; cited from earlier work

| SMILES | Concentration restoring nuclear localization of mutant mouse p53 [mM] |
| --- | --- |
| OCC(O)CO [Glycerol] | 600 |

Test system: mutant p53 (position 173 or position 249) in Saos-2 cells
Assay: WAF1 and p53 expression, Western blot, Saos-2 cells with transfected mutant p53
Format: cell-based
Conditions: position 173 or 249 mutant; Compound X for 16 hours
Protocol: WAF1 and p53 Expression. […] Protein concentrations were determined using Bradford reagent (BioRad) and 5 or 10 ug of cell lysate were loaded onto 8-16 percent gradient polyacrylamide/SDS gels (Novex). […] The blots were washed for one hour in three changes of Tris buffered saline with 0.1 percent Tween 20, before the addition of the secondary antibody, HRP-conjugated anti-mouse IgG. The bands were visualized using Renaissance ECL (DuPont) and exposure to Hyperfilm ECL (Amersham Life Science).

| SMILES | WAF1 expression in Saos-2 cells with mutant p53 |
| --- | --- |
| COc1cccc2c1C(=O)c1c(O)c3c(c(O)c1C2=O)C[C@@](O)(C(=O)CO)C[C@@H]3O[C@H]1C[C@H](N)[C@H](O)[C@H](C)O1 [Adriamycin] | did not induce WAF-1 expression |

Target: T1, wild-type p53 DBD (Homo sapiens, UniProt P04637)
T1 construct: Recombinant DBD (residues 94-312) from wild-tvpe and mutant p53 proteins; made in house
T1 sequence (P04637 94-312): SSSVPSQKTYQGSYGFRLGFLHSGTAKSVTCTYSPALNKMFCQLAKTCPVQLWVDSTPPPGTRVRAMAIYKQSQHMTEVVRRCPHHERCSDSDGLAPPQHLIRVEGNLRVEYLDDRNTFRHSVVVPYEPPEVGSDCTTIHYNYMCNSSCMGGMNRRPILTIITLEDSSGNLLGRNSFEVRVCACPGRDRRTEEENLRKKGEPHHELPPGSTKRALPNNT
Assay: p53 DBD thermostabilization assay (ELISA for mAb1620 epitope)
Format: biochemical
Conditions: 0.5 ng of p53 DBD heated at 45° C. for 30 minutes; read-out: SC50: concentration of compound required to preserve 50% of the epitope for mAb 1620
Protocol: Thermostabilization Assay. Recombinant DBD (residues 94-312) from wild-tvpe and mutant p53 proteins and FLAG-tagged p53 DBD were prepared as described (Pavletich et al., 1993, Genes and Dev. 7, 2556-2564; Bullock et al., 1997, supra.). Mutant proteins used were 143A, 173A, 175S. 249S, and 273H. A number of small molecule organic compounds were tested. Compound stocks were dissolved in DMSO at 10 mg/ml and diluted prior to use. The proteins (0.25-1.0 ng/well) were diluted in a buffer containing 25 mM HEPES, pH 6.8, 150 mM KCl, 10 mM dithiothreitol and attached in 50 ul to Reacti-Bind microtiter plates (Pierce) for 35 minutes on ice. The wells were rinsed with 25 mM HEPES, pH 6.8, 150 mM KCl, compound or diluted DMSO vehicle added, and the plates incubated at the indicated temperatures. Incubation was terminated by placing the wells on ice; ELISA assays performed while maintaining the plates on ice in order to avoid further alterations of the epitopes. Wells were blocked for 1 hour with cold 5 percent skim milk (Difco) in HEPES/KCl buffer prior to addition of the primary antibodies. Monoclonal antibodies mAb1620, mAb240 (Calbiochem) and anti-FLAG M2 antibody (Eastman Kodak Company) were diluted at 1:100-1:250 in HEPES/KCl and added at 100 ul/well for 30 minutes. The plates were rinsed twice with cold HEPES/KCl buffer and incubated with horseradish peroxidase (HRP)-conjugated anti-mouse IgG (Boehringer Mannheim) for another 30 minutes. The HRP signal was developed using TMB developer (Pierce) and the optical density of the signal was read on a BioRad microplate reader set at 450 nm.

| SMILES | EC50 [µM] |
| --- | --- |
| C(=C\c1nc(NCCCN2CCOCC2)c2ccccc2n1)/c1ccccc1 [Compound 1A] | 36 |
| C(=C\c1nc(N2CCOCC2)c2ccccc2n1)/c1ccccc1 [Compound 1B] | > 300 |
| c1ccc2c(NCCCN3CCOCC3)c3cccnc3cc2c1 [Compound 2A] | 120 |
| c1ccc2c(NCCN3CCOCC3)c3cccnc3cc2c1 [Compound 2B] | > 300 |
| CCN(CC)CCCNc1c2ccccc2cc2ncccc12 [Compound 3A] | 50 |
| CCN(CC)CCCCNc1c2ccccc2cc2ncccc12 [Compound 3B] | 120 |
| CC(CN(C)C)CN1c2ccccc2Sc2ccccc21 (stereo not shown) [Compound 4A] | 38 |
| CN(C)CCCN1c2ccccc2Sc2ccccc21 [Compound 4B] | > 300 |
